# Experimental data taken from patent US10966426B2, “Herbicidal compositions comprising phenylpyrimidines” (BASF SE, priority 2016, dated 2021).
# Assays:
# Type in all cases: in vivo
# Polygonum aviculare = assay: greenhouse post-emergence treatment, POLAV; settings: POLAV
# Protocol: (§1) The culture containers used were plastic pots containing loamy sand with approximately 3.0% of humus as substrate. The seeds of the test plants were sown separately for each species.
# (§2) For the post-emergence treatment, the test plants were grown to a plant height of from 3 to 15 cm, depending on the plant habit, and only then treated with the active compounds which had been suspended or emulsified in water. To this end, the test plants were either sown directly, and grown in the same containers, or they were first grown separately as seedlings and transplanted into the test containers a few days prior to treatment.
# (§3) Depending on the species, the plants were kept at 10-25° C. and 20-35° C., respectively.
# (§4) The test period extended over 2 to 4 weeks. During this time, the plants were tended and their response to the individual treatments was evaluated.
# (§5) Evaluation was carried out using a scale from 0 to 100. 100 means no emergence of the plants, or complete destruction of at least the above-ground parts, and 0 means no damage or normal course of growth. A good herbicidal activity is given at values of at least 70, and very good herbicidal activity is given at values of at least 85.
# (§6) The respective stated components A and B, and if appropriate, C were formulated as a 10% by weight strength emulsion concentrate and, with addition of the amount of solvent system, introduced into the spray liquor used for applying the active compound. In the examples, the solvent used was water.
# (§7) In the examples below, using the method of S. R. Colby (1967) “Calculating synergistic and antagonistic responses of herbicide combinations”, Weeds 15, p. 22ff., the value E, which is expected if the activity of the individual active compounds is only additive, was calculated. E=X+Y−(X·Y/100) where X=effect in percent using herbicide A at an application rate a; • Y=effect in percent using herbicide B at application rate b; • E=expected effect (in %) of herbicide A+herbicide B at application rates a+b.
# Polygonum convolvulus = assay: greenhouse post-emergence treatment, POLCO; settings: Fallopia convolvulus; for inhibition at 500000 µg/mL (stock): sc, 504 h, POLCO, 21 DAT
# Protocol: as §1, §2, §3, §4, §5, §6, §7
# Lolium multiflorum = assay: greenhouse post-emergence treatment, LOLMU; settings: Lolium multiflorum, LOLMU; for inhibition at 500000 µg/mL (stock): sc, 504 h, 21 DAT
# Protocol: as §1
# (§8) To this end, the test plants were either sown directly, and grown in the same containers, or they were first grown separately as seedlings and transplanted into the test containers a few days prior to treatment.
# as §3, §4, §5
# (§9) In the examples, the solvent used was water.
# (§10) In the examples below, using the method of S. R. Colby (1967) “Calculating synergistic and antagonistic responses of herbicide combinations”, Weeds 15, p. […] E=X+Y−(X·Y/100) where X=effect in percent using herbicide A at an application rate a; • Y=effect in percent using herbicide B at application rate b; • E=expected effect (in %) of herbicide A+herbicide B at application rates a+b.
# Brachiaria decumbens = assay: greenhouse post-emergence treatment, BRADC; settings: for inhibition at 500000 µg/mL (stock): sc, 504 h, 21 DAT
# Protocol: as §1, §2, §3, §4, §5, §6, §7
# Matricaria chamomilla = assay: greenhouse post-emergence treatment, MATCH; settings: Matricaria chamomilla; for inhibition at 500000 µg/mL (stock): sc, 504 h, MATCH, 21 DAT
# Protocol: as §1, §2, §3, §4, §5, §6, §7
# Poa annua = assay: greenhouse post-emergence treatment, POAAN; settings: Poa annua
# Protocol: as §1, §2, §3, §4, §5, §6, §7
# Avena fatua = assay: greenhouse post-emergence treatment, AVEFA; settings: Avena fatua, AVEFA; for pest or weed control at 12.5 g/ha: 480 h, 20 DAT; for inhibition at 500000 µg/mL (stock): sc, 504 h, 21 DAT
# Protocol: as §1, §8, §3, §4, §5, §9, §10
# Papaver rhoeas = assay: greenhouse post-emergence treatment, PAPRH; settings: Papaver rhoeas, 480 h, PAPRH, 20 DAT
# Protocol: as §1, §2, §3, §4, §5, §6, §7
# Bromus sterilis = assay: greenhouse post-emergence treatment, BROST
# Protocol: as §1, §8, §3, §4, §5, §9, §10
# Stellaria media = assay: greenhouse post-emergence treatment, STEME; settings: Stellaria media, sc, 504 h, STEME, 21 DAT
# Protocol: as §1, §2, §3, §4, §5, §6, §7
# Galium aparine = assay: greenhouse post-emergence treatment, GALAP; settings: Galium aparine, 504 h, GALAP, 21 DAT, solo metazachlor (SC 500 g/l) 250 gai/ha
# Protocol: as §1, §2, §3, §4, §5, §6, §7
# Setaria viridis = assay: greenhouse post-emergence treatment, SETVI; settings: Setaria viridis, sc, 504 h, SETVI, 21 DAT, solo metazachlor (SC 500 g/l) 31.25 gai/ha
# Protocol: as §1, §8, §3, §4, §5, §9, §10
# Digitaria sanguinalis = assay: greenhouse post-emergence treatment, DIGSA; settings: Digitaria sanguinalis, sc, 504 h, DIGSA, 21 DAT
# Protocol: as §1, §8, §3, §4, §5, §9, §10
# [1] = solo cycloxydim (EC 100 g/l) 12.5 gai/ha
# [2] = solo metazachlor (SC 500 g/l) 31.25 gai/ha
# [3] = solo metazachlor (SC 500 g/l) 62.5 gai/ha
# [4] = solo metazachlor (SC 500 g/l) 125 gai/ha
# [5] = solo metazachlor (SC 500 g/l) 250 gai/ha
smiles,measurement,setting,value
CCCC(=NOCC)C1=C(O)CC(C2CCCSC2)CC1=O (centres unmarked) [cycloxydim],% activity,"Polygonum aviculare; 20 DAT, solo cycloxydim (EC 100 g/l) 12.5 gai/ha",0%
same,% activity,"Polygonum aviculare; 20 DAT, solo cycloxydim (EC 100 g/l) 25 gai/ha",0%
same,% activity,"Polygonum aviculare; 20 DAT, solo cycloxydim (EC 100 g/l) 50 gai/ha",0%
same,% activity,"Polygonum aviculare; 20 DAT, solo cycloxydim (EC 100 g/l) 100 gai/ha",0%
same,% activity,"Polygonum aviculare; cycloxydim solo (EC 100 g/l), 12.5 gai/ha, 20 DAT",0%
same,% activity,"Polygonum aviculare; cycloxydim solo (EC 100 g/l), 25 gai/ha, 20 DAT",0%
same,% activity,"Polygonum aviculare; cycloxydim solo (EC 100 g/l), 100 gai/ha, 20 DAT",0%
same,pest or weed control at 12.5 g/ha,Polygonum convolvulus; 480 h,0%
same,pest or weed control at 25 g/ha,Polygonum convolvulus; 480 h,0%
same,pest or weed control at 50 g/ha,Polygonum convolvulus; 480 h,0%
same,pest or weed control at 100 g/ha,Polygonum convolvulus; 480 h,0%
same,pest or weed control at 12.5 g/ha,"Lolium multiflorum; 480 h, cycloxydim solo (EC 100 g/l), 12.5 gai/ha, 20 DAT",90%
same,% activity,"Brachiaria decumbens; BRADC, 20 DAT, solo cycloxydim (EC 100 g/l) 12.5 gai/ha",65%
same,pest or weed control at 12.5 g/ha,"Brachiaria decumbens; Urochloa decumbens, 480 h",65%
same,pest or weed control at 12.5 g/ha,Matricaria chamomilla; 480 h,0%
same,pest or weed control at 25 g/ha,Matricaria chamomilla; 480 h,0%
same,pest or weed control at 50 g/ha,Matricaria chamomilla; 480 h,0%
same,pest or weed control at 100 g/ha,Matricaria chamomilla; 480 h,0%
same,pest or weed control at 12.5 g/ha,Poa annua; 480 h,0%
same,pest or weed control at 25 g/ha,Poa annua; 480 h,0%
same,pest or weed control at 50 g/ha,Poa annua; 480 h,0%
same,pest or weed control at 100 g/ha,Poa annua; 480 h,0%
same,pest or weed control at 12.5 g/ha,Avena fatua; [1],20%
same,pest or weed control at 12.5 g/ha,"Avena fatua; cycloxydim solo (EC 100 g/l), 12.5 gai/ha",20%
same,pest or weed control at 12.5 g/ha,Papaver rhoeas; [1],0%
same,pest or weed control at 100 g/ha,Papaver rhoeas; solo cycloxydim (EC 100 g/l) 100 gai/ha,0%
same,% activity,"Bromus sterilis; BROST, 20 DAT, solo cycloxydim (EC 100 g/l) 12.5 gai/ha",25%
same,pest or weed control at 12.5 g/ha,"Bromus sterilis; Bromus sterilis, 480 h",25%
Cc1cccc(C)c1N(Cn1cccn1)C(=O)CCl [metazachlor],inhibition at 500000 µg/mL (stock),"Polygonum aviculare; Polygonum aviculare, 504 h, 21 DAT, solo metazachlor (SC 500 g/l) 125 gai/ha",25%
same,% activity,"Polygonum aviculare; metazachlor solo (SC 500 g/l), 31.25 gai/ha, 21 DAT",20%
same,inhibition at 500000 µg/mL (stock),Polygonum convolvulus; [2],0%
same,inhibition at 500000 µg/mL (stock),Polygonum convolvulus; [3],0%
same,inhibition at 500000 µg/mL (stock),Polygonum convolvulus; [4],10%
same,inhibition at 500000 µg/mL (stock),Polygonum convolvulus; [5],20%
same,inhibition at 500000 µg/mL (stock),Lolium multiflorum; [2],30%
same,inhibition at 500000 µg/mL (stock),Lolium multiflorum; [4],85%
same,inhibition at 500000 µg/mL (stock),Lolium multiflorum; [5],85%
same,inhibition at 500000 µg/mL (stock),Stellaria media; [2],0%
same,inhibition at 500000 µg/mL (stock),Stellaria media; [3],0%
same,inhibition at 500000 µg/mL (stock),Stellaria media; [4],25%
same,inhibition at 500000 µg/mL (stock),Stellaria media; [5],35%
same,inhibition at 500000 µg/mL (stock),Galium aparine,85%
same,inhibition at 500000 µg/mL (stock),Setaria viridis,65%
same,inhibition at 500000 µg/mL (stock),"Brachiaria decumbens; Urochloa decumbens, BRADC, solo metazachlor (SC 500 g/l) 31.25 gai/ha",10%
same,inhibition at 500000 µg/mL (stock),"Brachiaria decumbens; Urochloa decumbens, BRADC, solo metazachlor (SC 500 g/l) 62.5 gai/ha",20%
same,inhibition at 500000 µg/mL (stock),"Brachiaria decumbens; Urochloa decumbens, BRADC, solo metazachlor (SC 500 g/l) 125 gai/ha",25%
same,inhibition at 500000 µg/mL (stock),"Brachiaria decumbens; Urochloa decumbens, BRADC, solo metazachlor (SC 500 g/l) 250 gai/ha",60%
same,inhibition at 500000 µg/mL (stock),Matricaria chamomilla; [2],0%
same,inhibition at 500000 µg/mL (stock),Matricaria chamomilla; [3],0%
same,inhibition at 500000 µg/mL (stock),Matricaria chamomilla; [5],20%
same,inhibition at 500000 µg/mL (stock),Digitaria sanguinalis; [2],0%
same,inhibition at 500000 µg/mL (stock),Digitaria sanguinalis; [5],75%
same,inhibition at 500000 µg/mL (stock),"Poa annua; 504 h, POAAN, 21 DAT, solo metazachlor (SC 500 g/l) 250 gai/ha",85%
same,inhibition at 500000 µg/mL (stock),Avena fatua; [3],10%
same,inhibition at 500000 µg/mL (stock),Avena fatua; [4],0%
same,inhibition at 500000 µg/mL (stock),Avena fatua; [5],10%
